According to patent publication US9675596B2, “1,2,4-thiazolidin-3-one derivatives and their use in the treatment of cancer” (Baltic Bio AB, priority 2009, dated 2017):

The compounds below were run on PC-3 cells (assay: Cell proliferation assay (BrdU incorporation)). Conditions: Homo sapiens, serum-free, 1.25 μM, relative to vehicle control (1 unit), 18 h + 6 h BrdU, read-out: Units of BrdU incorporation.
Assay type: cell-based
Experimental: PC-3 cancer cell lines were propagated in D-MEM (Gibco 21885) supplemented with 10% Foetal calf serum. 15000 cells per well were seeded in 96 well plates and incubated overnight. The culture media was changed to serum-free D-MEM for 24 h. The culture media was then changed to serum free D-MEM containing either 0.2% DMSO as vehicle control or 0.3, 0.6, 1.2 or 2.5 μM (or 1.25, 2.5, 5, 10 μM (as indicated in Table 1 below)) of the selected compounds of Example 1 to Example 8 in 0.2% DMSO in quadruplicate. After 18 h incubation, BrdU was added according to manufacturer's recommendations. After 6 h incubation in the presence of BrdU, the culture media was removed and BrdU incorporation was measured using “Cell Proliferation ELISA, BrdU colorimetric” Roche (11647229001) according to manufacturer's recommendations.
Proliferation rate of PC-3 cells are reduced by relevant concentrations of the test compounds as measured by BrdU incorporation.

| Structure (SMILES) | activity at 1.25 µM [%] |
| --- | --- |
| O=c1[nH]s/c(=N\c2ccc(Cl)c(Cl)c2)n1C(c1ccccc1)c1ccccc1 [Example 6, 4-Benzhydryl-5-(3,4-dichlorophenyl)imino-1,2,4-thiadiazolidin-3-one] | 42 |
| O=c1nc(Nc2ccc(Cl)c(Cl)c2)sn1Cc1ccc(F)c(F)c1 [Example 8c, 1,5-(3,4-dichlorophenylamino)-2-(3,4-difluorobenzyl)-[1,2,4]thiadiazol-3-one] | 7 |

Same assay, conditions: Homo sapiens, serum-free, 2.5 μM, relative to vehicle control (1 unit), 18 h + 6 h BrdU, read-out: Units of BrdU incorporation

| Structure (SMILES) | activity at 2.5 µM [%] |
| --- | --- |
| O=C(Nc1nc(=O)n(Cc2ccc(F)cc2)s1)c1ccc(OC(F)(F)F)cc1 [Example 4n, N-[2-[(4-fluorophenyl)methyl]-3-oxo-1,2,4-thiadiazol-5-yl]-4-(trifluoromethoxy)-benzamide] | 17 |
| COc1ccc(Cn2sc(Nc3ccc(Cl)c(Cl)c3)nc2=O)cc1 [Example 8a, 1,5-(3,4-Dichlorophenylamino)-2-(4-methoxybenzyl)-[1,2,4]thiadiazol-3-one] | 4 |
| O=c1nc(Nc2ccc(Cl)c(Cl)c2)sn1Cc1ccc(Cl)cc1 [Example 8b, 1,5-(3,4-dichlorophenylamino)-2-(4-chlorobenzyl)-[1,2,4]thiadiazol-3-one] | 18 |

Same assay, conditions: Homo sapiens, serum-free, 5 μM, relative to vehicle control (1 unit), 18 h + 6 h BrdU, read-out: Units of BrdU incorporation

| Structure (SMILES) | activity at 5 µM [%] |
| --- | --- |
| O=c1[nH]s/c(=N\c2ccc(Cl)c(Cl)c2)n1Cc1ccccc1 [Example 2e] | 17 |
| O=C(Nc1nc(=O)n(C2(c3ccc(F)cc3)CC2)s1)c1ccc(Cl)c(Cl)c1 [Example 4i, 3,4-dichloro-N-[2-[1-(4-fluorophenyl)cyclopropyl]-3-oxo-1,2,4-thiadiazol-5-yl]benzamide] | 10 |
| O=c1nc(Nc2ccc(Cl)c(Cl)c2)sn1CCc1ccccc1 [Example 8f, 5-(3,4-dichlorophenylamino)-2-phenethyl-[1,2,4]thiadiazol-3-one] | 8 |
| O=c1nc(Nc2ccc(C(F)(F)F)cc2)sn1Cc1ccc(F)c(F)c1 [Example 8k, 2-[(3,4-difluorophenyl)methyl]-5-[[4-(trifluoromethyl)phenyl]amino]-1,2,4-thiadiazol-3-one] | 4 |
| O=c1nc(Nc2ccc(OC(F)(F)F)cc2)sn1Cc1ccc(F)c(F)c1 [Example 8l, 2-[(3,4-difluorophenyl)methyl]-5-[[4-(trifluoromethoxy)phenyl]amino]-1,2,4-thiadiazol-3-one] | 10 |
| O=c1nc(Nc2ccc(C(F)(F)F)cc2)sn1Cc1ccc(Cl)cc1 [Example 8p, 2-[(4-chlorophenyl)methyl]-5-[[4-(trifluoromethyl)phenyl]amino]-1,2,4-thiadiazol-3-one] | 7 |
| O=c1nc(Nc2ccc(C(F)(F)F)cc2)sn1Cc1cccc(F)c1 [Example 8q, 2-[(3-fluorophenyl)methyl]-5-[[4-(trifluoromethyl)phenyl]amino]-1,2,4-thiadiazol-3-one] | 15 |
| O=c1nc(Nc2ccc(C(F)(F)F)cc2)sn1CCc1ccccc1 [Example 8r, 2-[phenylethyl]-5-[[4-(trifluoromethyl)phenyl]amino]-1,2,4-thiadiazol-3-one] | 58 |
| N#Cc1ccc(Nc2nc(=O)n(Cc3ccc(F)c(F)c3)s2)cc1 [Example 8w, 4-[[2-[(3,4-difluorophenyl)methyl]-3-oxo-1,2,4-thiadiazol-5-yl]amino]benzonitrile] | 28 |

Same assay, conditions: Homo sapiens, serum-free, 10 μM, relative to vehicle control (1 unit), 18 h + 6 h BrdU, read-out: Units of BrdU incorporation

| Structure (SMILES) | activity at 10 µM [%] |
| --- | --- |
| CN(CCn1c(=O)[nH]s/c1=N\c1ccc(Cl)c(Cl)c1)c1ccc(Cl)cc1 [Example 2g, 4-[2-[(4-chlorophenyl)-methyl-amino]ethyl]-5-(3,4-dichlorophenyl)imino-1,2,4-thiadiazolidin-3-one] | 14 |
| O=C(Nc1nc(=O)n(Cc2cccc(C(F)(F)F)c2)s1)c1ccccc1 [Example 3, N-[3-oxo-2-[[3-(trifluoromethyl)phenyl]methyl]-1,2,4-thiadiazol-5-yl]benzamide] | 70 |
| O=C(Nc1nc(=O)n(Cc2cccc(C(F)(F)F)c2)s1)c1ccc(F)cc1 [Example 4a, 4-fluoro-N-[3-oxo-2-[[3-(trifluoromethyl)phenyl]methyl]-1,2,4-thiadiazol-5-yl]benzamide] | 30.9 |
| O=C(Cc1ccc(F)cc1)Nc1nc(=O)n(Cc2cccc(C(F)(F)F)c2)s1 [Example 4b, 2-(4-fluorophenyl)-N-[3-oxo-2-[[3-(trifluoromethyl)phenyl]methyl]-1,2,4-thiadiazol-5-yl]acetamide] | 72 |
| O=C(Nc1nc(=O)n(Cc2ccc(F)c(F)c2)s1)c1ccc(Cl)cc1 [Example 4c, 4-chloro-N-[2-[(3,4-difluorophenyl)methyl]-3-oxo-1,2,4-thiadiazol-5-yl]benzamide] | 39.3 |
| O=C(Nc1nc(=O)n(Cc2ccc(F)cc2)s1)c1ccc(Cl)cc1 [Example 4d, 4-chloro-N-[2-[(4-fluorophenyl)methyl]-3-oxo-1,2,4-thiadiazol-5-yl]benzamide] | 61.2 |
| O=C(Nc1nc(=O)n(Cc2ccc(Cl)cc2)s1)c1ccc(Cl)cc1 [Example 4e, 4-chloro-N-[2-[(4-chlorophenyl)methyl]-3-oxo-1,2,4-thiadiazol-5-yl]benzamide] | 35.5 |
| O=C(Nc1nc(=O)n(Cc2ccc(F)cc2)s1)c1c(Cl)cccc1Cl [Example 4l, 2,6-dichloro-N-[2-[(4-fluorophenyl)methyl]-3-oxo-1,2,4-thiadiazol-5-yl]benzamide] | 20 |
| O=C(Nc1nc(=O)n(Cc2ccc(F)cc2)s1)c1ccc(Cl)cc1Cl [Example 4m, 2,4-dichloro-N-[2-[(4-fluorophenyl)methyl]-3-oxo-1,2,4-thiadiazol-5-yl]benzamide] | 23 |
| O=C(Nc1nc(=O)n(Cc2ccc(F)cc2)s1)c1cc(C(F)(F)F)cc(C(F)(F)F)c1 [Example 4o, N-[2-[(4-fluorophenyl)methyl]-3-oxo-1,2,4-thiadiazol-5-yl]-3,5-bis(trifluoromethyl)-benzamide] | 28 |
| O=C(Nc1nc(=O)n(Cc2ccc(F)cc2)s1)c1ccc(F)c(F)c1 [Example 4p, 3,4-difluoro-N-[2-[(4-fluorophenyl)methyl]-3-oxo-1,2,4-thiadiazol-5-yl]benzamide] | 26 |
| O=c1[nH]s/c(=N\c2ccc(Cl)c(Cl)c2)n1CCOc1ccccc1 [Example 5a, 5-(3,4-dichlorophenyl)imino-4-(2-phenoxyethyl)-1,2,4-thiadiazolidin-3-one] | 37 |
| O=c1nc(Nc2ccc(Cl)c(Cl)c2)sn1CCOc1ccccc1 [Example 5b, 5-(3,4-Dichloro-phenylamino)-2-(2-phenoxy-ethyl)-[1,2,4]thiadiazol-3-one] | 14 |
